Assay results from US20200165574A1, “METHODS OF PREPARING NAÏVE HUMAN PLURIPOTENT STEM CELLS” (REGENTS OF THE UNIVERSITY OF MINNESOTA, priority 2017, published 2020).
“Also recorded” adds a separate entry of the source.

Assays:
Format in all cases: cell-based, human
primed HPSCs [1] = experiment: ERK inhibitor assay, primed PSCs; conditions: 10 nM ERK inhibitor in media, imaged each day for 4 days
Procedure: (§1) One day after passaging, 10 nM ERK inhibitor PD0325901 (PZ0162, Sigma-Aldrich, St. Louis, Mo.) was added to naïve or primed PSCs. Cells were imaged each day for 4 days to follow morphology changes.

naïve HPSCs [2] = experiment: ERK inhibitor assay, naïve PSCs; conditions: naïve HPSCs in RSet media, additional 10 nM ERK inhibitor, imaged each day for 4 days; listed as PD325901
Procedure: as §1

naïve HPSCs [3] = experiment: Karyotype of transitioned naïve HPSCs (high-resolution G banding); conditions: after 10 passages in RSet media
Excerpt: Naïve HPSCs were examined by high-resolution G banding after 10 passages in RSet medium.

primed HPSCs [4] = experiment: Feeder-free transition of primed HPSCs to the naïve state on a culture substrate; conditions: RSet media, substrate-coated plate
Procedure: Primed induced pluripotent stem cell (PCBC16iPS) (Ye et al. (2013) PLoS ONE 8 (1):e53764) to be used for naïve cell derivation were cultured for at least two passages in mTeSR1 medium (STEMCELL Technologies, Vancouver, Canada) in either normoxic (20% O2, 5% CO2) or hypoxic conditions (5% O2, 5% CO2). Primed iPSCs were treated with Gentle Cell Dissociation Reagent (STEMCELL Technologies, Vancouver, Canada) for 5 minutes at room temperature and removed from the plate with a 5 milliliter (mL) pipette in 1 mL TeSR1 medium. Aggregates of 250 primed iPSCs were plated in 1 mL mTeSR1 (STEMCELL Technologies, Vancouver, Canada) per well of a 12-well tissue culture treated plate (Corning, Inc., Corning, N.Y.) coated with 5 micrograms per milliliter (μg/mL) full-length vitronectin (PeproTech, Rocky Hill, N.J.) (Parr et al. (2016) Methods in Molecular Biology 1357:221-9). The plate had been previously coated with vitronectin at 37° C. for 2 hours per manufacturer's protocol. The plated cells were incubated overnight at 37° C., to allow adherence to the vitronectin coated plate. The cells may be incubated in either normoxic or hypoxic conditions, and typically were incubated under the same conditions used to maintain the primed HPSC culture. […] Cells were monitored for compaction and defined colony edges. […]

Row | Molecule | differentiation / maintenance of pluripotency (morphology changes) (primed HPSCs [1]) | differentiation / maintenance of undifferentiated state (morphology changes) (naïve HPSCs [2]) | karyotype of naïve HPSCs derived on the substrate (naïve HPSCs [3]) | support of transition from primed to naïve pluripotent state (primed HPSCs [4])
1 | O=C(NOC[C@H](O)CO)c1ccc(F)c(F)c1Nc1ccc(I)cc1F [PD0325901] | induces differentiation; also recorded: displayed immediate differentiation | maintain their undifferentiated state | – | –
2 | full-length recombinant vitronectin: xeno-free recombinant full-length vitronectin (PeproTech), coated on plate at 5 μg/mL as culture substrate (protein, UniProt P04004 1-478, looked up, full-length, xeno-free recombinant full-length vitronectin (PeproTech), coated on plate at 5 μg/mL as culture substrate) MAPLRPLLILALLAWVALADQESCKGRCTEGFNVDKKCQCDELCSYYQSCCTDYTAECKPQVTRGDVFTMPEDEYTVYDDGEEKNNATVHEQVGGPSLTSDLQAQSKGNPEQTPVLKPEEEAPAPEVGASKPEGIDSRPETLHPGRPQPPAEEELCSGKPFDAFTDLKNGSLFAFRGQYCYELDEKAVRPGYPKLIRDVWGIEGPIDAAFTRINCQGKTYLFKGSQYWRFEDGVLDPDYPRNISDGFDGIPDNVDAALALPAHSYSGRERVYFFKGKQYWEYQFQHQPSQEECEGSSLSAVFEHFAMMQRDSWEDIFELLFWGRTSAGTRQPQFISRDWHGVPGQVDAAMAGRIYISGMAPRPSLAKKQRFRHRNRKGYRSQRGHSRGRNQNSRRPSRATWLSLFSSEESNLGANNYDDYRMDWLVPATCEPIQSVFFFSGDKYYRVNLRTRRVDTVDPPYPRSIAQYWLGCPAPGHL | – | – | normal karyotype | supports the successful transition
